Reference: patent US20240180855A1, “BIOACTIVE PRODUCTS” (priority 2021, published 2024)
“And” between values parts separate entries of the source, which are not always exact repeats. Equal values may be shown once. Read-outs that look alike come from different tables or passages of the source.

Experiments:
[1] = system: wheat; test: Wheat growth after seed treatment with reverse transcription, integration and protease inhibitors (Example 4); type: in vivo; conditions: seeds treated 1 hour at 37° C.; cultivation 23° C.
[2] = system: wheat; test: Wheat growth after seed treatment with complexes of inhibitors and nucleases (Example 5); type: in vivo; conditions: seeds treated 1 hour at 37° C.; cultivation 23° C.
Description: Plant: wheat Treatment: The seeds were treated with various products for 1 hour, at 37° C. […] Cultivation temperature 23° C.

[3] = system: wheat; conditions: in vivo
[4] = system: Fungi of the Saprolegnia spp.; test: Time to inactivation of Saprolegnia fungi (Example 15); type: cell-based; set-up: key: —: No antimicrobial activity
Description: Fungi in the amount of 10e8 cells were added to 1.0 ml of a solution of the test substance and after incubation were washed by PBS with centrifugation, resuspended in buffer, and plated on potato agar to assess survival.

[5] = system: Wheat seeds (Triticum aestivum L.); test: Wheat growth under stress conditions (18° C.) after seed soaking (Example 2); type: in vivo; conditions: seeds soaked 1 hour at 37° C., 100 μg/ml, cultivation 18° C.; for Root length (cm) / Shoot length (cm): after 5 days
Description: The cultivation temperature was 18° C., instead of the required 23° C. The assessment of the state of the plants was carried out after 5 days (table 2).

[6] = system: patients with seborrheic dermatitis; test: Treatment of seborrheic dermatitis (Example 23); type: in vivo, human; conditions: excipient alone, regimen not given; assessed within 14 days
Description: The efficacy of the drugs was assessed within 14 days, using objective and subjective measures (the prevalence of the disease, the degree of inflammation and infiltration of skin elements, the severity of itching, peeling and crusting). Dermatoscopy was done using the Heine, mini 3000 LED.

[7] = system: Wheat seeds (Triticum aestivum L.); test: Wheat seed germination on potato dextrose agar after soaking in products (Example 1); type: in vivo; conditions: seeds soaked 1 hour; nucleases 100 μg/ml at 37° C., M4 group products 0.5%
Excerpt: Wheat seeds (Triticum aestivum L., healthy, not infected) were washed with water with soap, then without soap. […] Then the seeds (8 pieces) were laid out on potato dextrose agar (https://himedialabs.com/TD/M096.pdf). Treatment with test products.

[8] = system: wheat; test: Wheat growth after one-time watering with products (Example 7); type: in vivo; set-up: Shoot length / Root length: unit not given here; conditions: one-time watering 1000 μg/ml, 200 ml for 20 grains; day 5
[9] = system: Fish (Trout) fish eggs contaminated with various pathogens
[10] = system: wheat; test: Regulation of wheat development after seed treatment (Example 3); type: in vivo; conditions: seeds treated 1 hour at 37° C.; cultivation 23° C.
Description: Plant: wheat. Treatment: The wheat seeds were treated with various nucleases or products of the M4 group for 1 hour, at 37° C. […] Cultivation temperature 23° C.

[11] = system: Red Turkish Carnation Seeds; test: Full cycle of plant growth after seed treatment with nucleases (Example 12); type: in vivo; conditions: seeds incubated with 100 μg/ml at 37° C. for 60 minutes

## C[C@H](Cn1cnc2c(N)ncnc21)OCP(=O)(O)O [Tenofovir]
[1]
  Chlorophyll total: 57.7 mg/g
  Emergence (%): 45%
  Root lenght (median): 9
  Shoot length (median): 14

## Cc1cc(C#N)cc(C)c1Oc1nc(Nc2ccc(C#N)cc2)nc(N)c1Br [Etravirine]
[1]
  Chlorophyll total: 58.7 mg/g
  Emergence (%): 55%
  Root lenght (median): 9
  Shoot length (median): 13
[2]
  Chlorophyll total: 25.0 mg/g
  Emergence (%): 75%
  Root lenght: 5.5
  Shoot length: 7.4

## O=P([O-])([O-])O.[Na+].[Na+] [Na2HPO4 (0.01%), Na2HPO4]
[3]
  Root length (cm): 7.7 cm and 5.9 cm
  Seedling length (cm): 8.4 cm and 6.1 cm
[4]; 0.005%
  Time (minutes) to reach 100% inactivation: —
[4]; 0.01%
  Time (minutes) to reach 100% inactivation: —
[4]; 0.05%
  Time (minutes) to reach 100% inactivation: —
[4]; 0.1%
  Time (minutes) to reach 100% inactivation: —
[4]; 0.5%
  Time (minutes) to reach 100% inactivation: —

## COc1cc2c(cc1Cc1cccc(Cl)c1F)c(=O)c(C(=O)O)cn2[C@H](CO)C(C)C [Elvitegravir]
[5]
  Emergence at day 5: 65%
  Root length (cm): 2.6 cm
  Shoot length (cm): 9.9 cm

## Nc1nc(NC2CC2)c2ncn([C@H]3C=C[C@@H](CO)C3)c2n1 [Abacavir]
[1]
  Chlorophyll total: 51.8 mg/g
  Emergence (%): 50%
  Root lenght (median): 11
  Shoot length (median): 13

## Nc1ccn([C@@H]2CS[C@H](CO)O2)c(=O)n1 [Lamivudine]
[1]
  Chlorophyll total: 54.3 mg/g
  Emergence (%): 55%
  Root lenght (median): 9
  Shoot length (median): 13

## O=S(=O)([O-])[O-].[Zn+2] [ZnSO4 0.01%, ZnSO4]
[3]
  Root length (cm): 5.7 cm and 7.1 cm
  Seedling length (cm): 6.1 cm and 8.0 cm
[4]; 0.005%
  Time (minutes) to reach 100% inactivation: —
[4]; 0.01%
  Time (minutes) to reach 100% inactivation: —
[4]; 0.05%
  Time (minutes) to reach 100% inactivation: —
[4]; 0.1%
  Time (minutes) to reach 100% inactivation: —
[4]; 0.5%
  Time (minutes) to reach 100% inactivation: —*
[6]
  Day at which prevalence of the symptoms was reduced by 80%: >14 days

## [H]/N=C(\N/C(=N/[H])NCCCCCCNC(=N)NC(=N)Nc1ccc(Cl)cc1)Nc1ccc(Cl)cc1 [Chlorhexidine]
[7]
  Germination (%) at day 5 Day 3: 54%
  Median shoot length (mm) Day 3: 14.6 mm
[5]
  Emergence at day 5: 53%
  Root length (cm): 1.9 cm
  Shoot length (cm): 6.3 cm
[8]
  Emergence (%): 50%
  Root length: 3.6
  Shoot length: 6.9

## OC[C@@H](O)[C@@H](O)[C@H](O)[C@H](O)CO [Mannit (0.01%), Mannitol]
[4]; 0.005%
  Time (minutes) to reach 100% inactivation: —
[4]; 0.01%
  Time (minutes) to reach 100% inactivation: —
[4]; 0.05%
  Time (minutes) to reach 100% inactivation: —
[4]; 0.1%
  Time (minutes) to reach 100% inactivation: —
[4]; 0.5%
  Time (minutes) to reach 100% inactivation: —

## CN(C)c1ccc2nc3ccc(=[N+](C)C)cc-3sc2c1 [Methylene blue]
[9]
  Growth after plating: Lawn

## Cc1nnc(C(=O)NC(C)(C)c2nc(C(=O)NCc3ccc(F)cc3)c(O)c(=O)n2C)o1 [Raltegravir]
[5]
  Emergence at day 5: 71%
  Root length (cm): 2.6 cm
  Shoot length (cm): 9.8 cm
[1]
  Chlorophyll total: 56.9 mg/g
  Emergence (%): 60%
  Root lenght (median): 8
  Shoot length (median): 12
[2]
  Chlorophyll total: 25.9 mg/g
  Emergence (%): 42%
  Root lenght: 1.9
  Shoot length: 5.7

## Trypsin
[2]
  Chlorophyll total: 30.3 mg/g
  Emergence (%): 49%
  Root lenght: 5.8
  Shoot length: 2.5

## DNAse
[7]
  Germination (%) at day 5 Day 3: 75%
  Median shoot length (mm) Day 3: 24.6 mm
[5]
  Emergence at day 5: 64%
  Root length (cm): 2.1 cm
  Shoot length (cm): 6.9 cm
[10]
  Chlorophyll total: 49.1
  Emergence (%): 67%
  Leaf length (cm): 2.8 cm
  Leaf width (cm): 1.4 cm
  Number of leaves: 2 + 1
  Root length (cm): 15.2 cm
  Shoot length (cm): 5.8 cm
  Weight: 0.6 g
[2]
  Chlorophyll total: 24.7 mg/g
  Emergence (%): 73%
  Root lenght: 3.6
  Shoot length: 5.2
[11]
  Emergence (%): 95%
  Height on day 99: 7+/−1
  Root branching at 99 days (words in the root length cell): branched
  Root length at 99 days: 7+/−0.5
  The appearance of the first leaves: 5th day
  The beginning of flowering: 183 days
  The emergence of the buds: 174 days
  Weight of seeds on day 258/12 plants: 0.24 g

## Cc1ccnc2c1NC(=O)c1cccnc1N2C1CC1 [Nevirapine]
[1]
  Chlorophyll total: 52.9 mg/g
  Emergence (%): 25%
  Root lenght (median): 0
  Shoot length (median): 0

## CN(C)c1ccc(C(=C2C=CC(=[N+](C)C)C=C2)c2ccccc2)cc1 [Malachite green]
[9]
  Growth after plating: Lawn
